The record followed here is PMC7013880, “Synthesis of Spin-Labelled Bergamottin: A Potent CYP3A4 Inhibitor with Antiproliferative Activity” (International Journal of Molecular Sciences, 2020).

One may read the IC50 as the midpoint of a concentration-inhibition curve. The low end stands for inhibition by little substance, the high end for a need for much substance. As usually defined, the melting point is the temperature of the solid-liquid transition.

Data set [1] has as its target CYP2C9 (Homo sapiens, UniProt P11712).
Experimental: (§2) Stock solutions of BM, SL-BM, and positive controls (each 5000 μM) were prepared in dimethyl sulfoxide (Fluka) and stored at –20 °C. The inhibitory effects of BM and SL-BM on the CYP2C9, 2C19, and 3A4 enzymes were examined using CypExpress^TM assay kits by employing diclofenac, S-mephenytoin, and testosterone substrates, respectively.
(§3) The substrates and products were analyzed using the HPLC system comprising a pump (Waters 510; Milford, MA, USA), an injector (Rheodyne 7125) with a 20 μL sample loop, and a UV detector (Waters 486). The data were evaluated by employing Millennium Chromatographic Manager software (Waters). HPLC analyses of diclofenac and 4′-hydroxydiclofenac (CYP2C9 assay) [39, 40], S-mephenytoin, and 4-hydroxymephenytoin [42] as well as testosterone and 6β-hydroxytestosterone (CYP3A4 assay) [41] were performed as described previously.
(§4) Data were derived from at least three independent experiments and represented as the mean ± the standard error of the mean (SEM) values. The statistical significance (p < 0.05 and p < 0.01) was established by employing a one-way ANOVA test (IBS SPSS Statistics, v. 21; Armonk, NY, USA). The metabolite formation (% of control) was plotted as a function of the logarithmic concentrations, and then the IC50 values were determined using GraphPad Prism 8 software (San Diego, CA, USA).
The test system of data set [2] is NIH3T3 cells. Nature of the data set: WST-1 cell viability assay, NIH3T3 fibroblasts. In kind it is cell-based. As to conditions: Mus musculus, NIH3T3 murine embryonic fibroblasts, 24 h treatment. The protocol: (§1) Murine embryonic fibroblast NIH3T3 cells were maintained in DMEM (Cat No. 043-30085, Wako Pure Chemical, Osaka, Japan) supplemented with 10% newborn calf serum (NBCS) at 37 °C and 5% CO2. Human cervix carcinoma HeLa cells were maintained in DMEM supplemented with 10% fetal bovine serum at 37 °C and 5% CO2. To determine the toxicity of BM and SL-BM, the WST-1 cell viability assay was employed as described previously. The cells (NIH3T3: 2000 per well; HeLa: 5000 per well) were seeded into all the wells of 96-well plates. After 24 h, the medium was replaced, and the cells were treated with the test compounds for 24 h. Then, the cells were incubated with a WST-1 solution (3.6 µg/µL WST-1, 70 ng/µL 1-methoxy phenazine methosulfate in 20 mM 4-(2-hydroxyethyl)-1-piperazineethanesufonic acid–KOH (pH 7.4); Dojindo, Kumamoto, Japan) for 1 h at 37 °C, and the absorbance of each well was recorded at 440 nm using a Multiskan FC microplate reader (Thermo Fisher Scientific).
(Tetrazolium assays rely on reduction of a dye to a coloured formazan, in cell work by metabolically active cells.)

Data set [3] concerns HeLa cells. Nature of the data set: WST-1 cell viability assay, HeLa cells. Type of data set: cell-based. The note with it: HeLa human cervix carcinoma cells, 24 h treatment. The protocol: as §1
Data set [4] deals with CYP2C19 (Homo sapiens, UniProt P33261). Nature of the data set: CYP2C19 inhibition assay (CypExpress 2C19 kit, S-mephenytoin substrate, HPLC). The note with it: relative to BM.
Chain of CYP2C19 (P33261 whole entry): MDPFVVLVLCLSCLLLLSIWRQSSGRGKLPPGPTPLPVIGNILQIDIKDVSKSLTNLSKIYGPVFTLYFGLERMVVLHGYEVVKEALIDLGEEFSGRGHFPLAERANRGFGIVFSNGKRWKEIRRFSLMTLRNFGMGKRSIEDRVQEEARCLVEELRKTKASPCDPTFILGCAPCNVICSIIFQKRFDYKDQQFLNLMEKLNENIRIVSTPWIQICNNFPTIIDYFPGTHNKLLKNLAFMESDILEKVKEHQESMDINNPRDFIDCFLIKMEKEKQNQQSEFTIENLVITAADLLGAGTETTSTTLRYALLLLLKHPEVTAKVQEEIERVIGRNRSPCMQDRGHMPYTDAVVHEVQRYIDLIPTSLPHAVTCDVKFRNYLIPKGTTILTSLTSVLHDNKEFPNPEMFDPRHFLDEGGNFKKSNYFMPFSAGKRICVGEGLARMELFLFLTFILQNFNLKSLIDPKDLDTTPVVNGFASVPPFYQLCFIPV
Experimental: as §2, §3, §4

Chain of CYP2C9 (P11712 whole entry): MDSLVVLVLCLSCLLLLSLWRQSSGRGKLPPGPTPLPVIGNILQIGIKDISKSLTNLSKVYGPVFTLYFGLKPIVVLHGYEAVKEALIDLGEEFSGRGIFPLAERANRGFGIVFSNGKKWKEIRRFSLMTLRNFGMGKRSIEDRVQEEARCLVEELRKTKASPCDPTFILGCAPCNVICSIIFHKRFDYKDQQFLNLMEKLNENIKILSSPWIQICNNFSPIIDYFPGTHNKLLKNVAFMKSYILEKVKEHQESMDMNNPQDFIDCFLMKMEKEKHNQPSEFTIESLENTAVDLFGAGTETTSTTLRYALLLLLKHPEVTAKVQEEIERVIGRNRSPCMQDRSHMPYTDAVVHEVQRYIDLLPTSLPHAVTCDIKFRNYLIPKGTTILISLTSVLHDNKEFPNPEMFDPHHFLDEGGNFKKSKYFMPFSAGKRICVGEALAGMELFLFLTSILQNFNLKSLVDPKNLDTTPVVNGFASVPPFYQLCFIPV

In the case of `CC(=O)CC(c1ccccc1)c1c(O)c2ccccc2oc1=O` (centres unmarked) [Warfarin, warfarin], in data set [1], the “IC50(rel): IC50 of the inhibitor divided by the substrate concentration” value is recorded as 1.96 and the “α: IC50 of the inhibitor divided by the IC50 value of the positive control” value is on record as 1.00.
As to `CC(C)=CCC/C(C)=C/COc1c2ccoc2cc2oc(=O)ccc12` [Bergamottin, 5-geranoxypsoralen], the IC50 in data set [2] and in data set [3] was above 50 µM throughout.
Molecule `C/C(=C\COc1c2ccoc2cc2oc(=O)ccc12)CCC=C1CC(C)(C)N([O])C(C)(C)C1` [SL-Bergamottin] had a melting point of 51 to 53 °C. In data set [2], this molecule gave an IC50 above 50 µM. The molecule further had an IC50 in data set [3] of 17.3 µM. For the same molecule, in data set [4], the “fold weaker inhibitor of CYP2C19 than BM” value is recorded as around 15 fold.
